Laboratory results published in publication PMC7565640 (Journal of Virology, 2020).
pIC50: −log10 of the molar value. “And” between values parts separate entries of the source, which are not always exact repeats. Identical values can stand only once. Counter-ions that a name gives are not always drawn.

Legend:
SARS-CoV-2 [1] = type: cell-based; settings: read-out: IC50 (avg)
Vero E6 cells = settings: read-out: CC50 (avg); 3 days
SARS-CoV-2 [2] = type: cell-based
SARS-CoV-2 [3] = type: cell-based; remark: listed apart in the source
[4] = test system: clathrin-mediated endocytosis; settings: cited from earlier work
SARS-CoV spike = settings: cited from earlier work
MERS-CoV spike = settings: cited from earlier work

SMILES | pIC50 (SARS-CoV-2 [1]) | further results
CCN(CC)Cc1cc(Nc2ccnc3cc(Cl)ccc23)ccc1O [Amodiaquine dihydrochloride dihydrate] | 5.59 and 5.31 | 
CCN(CC)Cc1cc(Nc2ccnc3cc(Cl)ccc23)ccc1O [Amodiaquine hydrochloride] |  | CC50 (Vero E6 cells): > 38.6 µM
CCN(CC)CCCC(C)Nc1ccnc2cc(Cl)ccc12 (centres unmarked) [Chloroquine phosphate] | 4.33 | infectious viral particle production of SARS-CoV-2 (TCID50) (SARS-CoV-2 [2]): can inhibit; production of SARS-CoV-2 N and RdRp mRNA (SARS-CoV-2 [3]): inhibit production
CN(C)CCCN1c2ccccc2Sc2ccc(Cl)cc21 [Chlorpromazine hydrochloride] | 5.39 | infectious viral particle production of SARS-CoV-2 (TCID50) (SARS-CoV-2 [2]): can inhibit; clathrin-mediated endocytosis [4]: inhibit
O=C1NCN(c2ccccc2)C12CCN(CCCC(c1ccc(F)cc1)c1ccc(F)cc1)CC2 [Fluspirilene] | 5.27 | 
CCN(CCO)CCCC(C)Nc1ccnc2cc(Cl)ccc12 (centres unmarked) [Hydroxychloroquine sulfate] | 4.95 | infectious viral particle production of SARS-CoV-2 (TCID50) (SARS-CoV-2 [2]): can inhibit; time-of-addition: inhibitory activity on infectious-virus production (SARS-CoV-2 [2]; 24 h): some reduction in inhibitory activity; production of SARS-CoV-2 N and RdRp mRNA (SARS-CoV-2 [3]): inhibit production
Cc1ccc(NC(=O)c2ccc(CN3CCN(C)CC3)cc2)cc1Nc1nccc(-c2cccnc2)n1 [Imatinib mesylate] |  | SARS-CoV spike-mediated entry (SARS-CoV spike): inhibits; MERS-CoV spike-mediated entry (MERS-CoV spike): inhibits
OC(c1cc(C(F)(F)F)nc2c(C(F)(F)F)cccc12)C1CCCCN1 (centres unmarked) [Mefloquine hydrochloride] | 5.09 | 
CC(CN1c2ccccc2Sc2ccccc21)N(C)C (centres unmarked) [Promethazine hydrochloride] | 4.98 | 
CC(C)N1CCN(c2ccc(OCC3COC(Cn4cncn4)(c4ccc(Cl)cc4Cl)O3)cc2)CC1 (centres unmarked) [Terconazole] | 4.79 | 
CCSc1ccc2c(c1)N(CCCN1CCN(C)CC1)c1ccccc1S2 [Thiethylperazine maleate] | 5.10 | 
CCN(CC)CCOc1ccc(C(O)(Cc2ccc(Cl)cc2)c2ccc(C)cc2)cc1 (centres unmarked) [Triparanol] | 5.19 | 
